One may read the IC50 as the concentration needed to halve the response being measured. The term inhibition denotes the share of the control response that was lost under treatment. Low values mean little suppression, high ones strong suppression.

The structures appear in SMILES notation.

One assay deals with T1, rat NaPi-2b (Rattus norvegicus, UniProt Q9JJ09).
T1 construct: expressed in transfected cells; host or cells: Xenopus oocytes injected with cRNA
T1 sequence (Q9JJ09 1-695): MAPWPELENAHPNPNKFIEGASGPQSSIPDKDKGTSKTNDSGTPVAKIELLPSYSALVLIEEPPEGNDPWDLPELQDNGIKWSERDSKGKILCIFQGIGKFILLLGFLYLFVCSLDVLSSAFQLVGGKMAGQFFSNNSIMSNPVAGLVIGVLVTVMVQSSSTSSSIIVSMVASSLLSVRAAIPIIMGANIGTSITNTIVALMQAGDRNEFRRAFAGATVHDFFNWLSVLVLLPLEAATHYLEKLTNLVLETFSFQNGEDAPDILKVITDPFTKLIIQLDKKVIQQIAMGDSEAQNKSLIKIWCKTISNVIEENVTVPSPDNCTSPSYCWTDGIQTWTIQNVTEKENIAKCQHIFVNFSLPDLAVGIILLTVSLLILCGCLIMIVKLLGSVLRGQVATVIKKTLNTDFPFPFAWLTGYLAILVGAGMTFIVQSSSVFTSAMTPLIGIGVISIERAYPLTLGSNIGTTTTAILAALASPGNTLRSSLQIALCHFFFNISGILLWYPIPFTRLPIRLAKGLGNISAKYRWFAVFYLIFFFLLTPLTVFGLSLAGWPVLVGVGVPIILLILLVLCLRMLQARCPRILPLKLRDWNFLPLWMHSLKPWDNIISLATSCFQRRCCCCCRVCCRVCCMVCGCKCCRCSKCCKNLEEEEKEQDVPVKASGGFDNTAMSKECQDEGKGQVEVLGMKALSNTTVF
Kind of assay: Sodium-dependent phosphate uptake of Xenopus oocytes which expressed NaPi-2b (32P). The class given is cell-based. Conditions: Xenopus oocytes expressing rat NaPi-2b, 32P radioactive phosphorus; read-out: IC50 (phosphate uptake inhibitory activity). In short, it runs like this: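 Percent inhibition at 300 μM and 100 μM comes from the same inhibition curve of 32P uptake. Assay used oocytes expressing rat NaPi-2b after 2 days of culture.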
As to `Cc1ccc(/C=N/NC(=O)c2c(C)csc2NC(=O)c2cccc(CN3CCC(CO)CC3)c2)cc1` [Compound 600, 3-(4-Hydroxymethyl-piperidin-1-ylmethyl)-N-[4-methyl-3-(4-methyl-benzylidene-hydrazinocarbonyl)-thiophen-2-yl]-benzamide], the IC50 stood at 3.84 µM.
As for `CCN(CC)CCSCc1cccc(C(=O)Nc2ccc(N3CCCCC3)cc2C(=O)N/N=C/c2ccc(F)cc2)c1` [Compound 877, 3-(2-Diethylamino-ethylsulfanylmethyl)-N-[2-(4-fluoro-benzylidene-hydrazinocarbonyl)-4-piperidin-1-yl-phenyl]-benzamide], the half-inhibitory concentration (IC50) is < 0.3 µM.
Same read-out and setting: next, `CCN(CC)CCNCc1ccc(C(=O)Nc2ccc(Br)cc2C(=O)N/N=C/c2ccc(C)cc2)cc1` [Compound 293, N-[4-Bromo-2-(4-methyl-benzylidene-hydrazinocarbonyl)-phenyl]-4-[(2-diethylamino-ethylamino)-methyl]-benzamide]: 5.59 µM.
Same read-out and setting: next, `Cc1ccc(/C=N/NC(=O)c2cc(Br)ccc2NC(=O)c2ccc(CN3CCC(N4CCCCC4)CC3)cc2)cc1` [Compound 309, 4-[1,4′]Bipiperidinyl-1′-ylmethyl-N-[4-bromo-2-(4-methyl-benzylidene-hydrazinocarbonyl)-phenyl]-benzamide]: 15.1 µM; `O=C(Nc1ccc(Br)cc1C(=O)N/N=C/c1ccc(Cl)c(C(F)(F)F)c1)c1ccc(CNCCN2CCOCC2)cc1` [Compound 714, N-[4-Bromo-2-(4-chloro-3-trifluoromethyl-benzylidene-hydrazinocarbonyl)-phenyl]-4-[(2-morpholin-4-yl-ethylamino)-methyl]-benzamide]: 3.52 µM; `COc1ccc(C(=O)Nc2cc(Cl)ccc2C(=O)N/N=C/c2cccc(F)c2)cc1OC` [Compound 71, N-[5-Chloro-2-(3-fluoro-benzylidene-hydrazinocarbonyl)-phenyl]-3,4-dimethoxy-benzamide]: 12.3 µM.
Still for that read-out and setting: the figure for `COc1ccc(C(=O)Nc2ccccc2C(=O)N/N=C/c2cccc(Cl)c2)cc1OC` [Compound 35, N-[2-(3-Chloro-benzylidene-hydrazinocarbonyl)-phenyl]-3,4-dimethoxy-benzamide] is 3.23 µM.
Consider `CCN(CC)Cc1cccc(C(=O)Nc2sc(CN3CCCCC3)c(C)c2C(=O)N/N=C/c2ccc(Cl)c(C(F)(F)F)c2)c1` [Compound 956, N-[3-(4-Chloro-3-trifluoromethyl-benzylidene-hydrazinocarbonyl)-4-methyl-5-piperidin-1-ylmethyl-thiophen-2-yl]-3-diethylaminomethyl-benzamide], for which the 50% inhibitory concentration (IC50) was found to be 29.8 µM.
On the same count and under the same terms, the figure for `O=C(Nc1ccc(N2CCCCC2)cc1C(=O)N/N=C/c1ccc(Cl)c(C(F)(F)F)c1)c1cccc(CN2CCc3nc4ncccc4cc3C2)c1` [Compound 897, N-[2-(4-Chloro-3-trifluoromethyl-benzylidene-hydrazinocarbonyl)-4-piperidin-1-yl-phenyl]-3-(7,8-dihydro-5H-1,6,9-triaza-anthracen-6-ylmethyl)-benzamide] is < 0.3 µM; for `Cc1cc(/C=N/NC(=O)c2ccccc2NC(=O)c2ccncc2)oc1C` [Compound 219, N-[2-(4,5-Dimethyl-furan-2-ylmethylene-hydrazinocarbonyl)-phenyl]-isonicotinamide] it is 9.07 µM.
Same read-out and setting: the figure for `CCSCCNCc1ccc(C(=O)Nc2ccc(Br)cc2C(=O)N/N=C/c2cccc(F)c2)cc1` [Compound 768, N-[4-Bromo-2-(3-fluoro-benzylidene-hydrazinocarbonyl)-phenyl]-4-[(2-ethylsulfanyl-ethylamino)-methyl]-benzamide] is 10.6 µM; for `O=C(Nc1ccc(OCCCCF)cc1C(=O)N/N=C/c1cccc(F)c1)c1cccc(CSCCO)c1` [Compound 1051, N-[2-(3-Fluoro-benzylidene-hydrazinocarbonyl)-4-(4-fluoro-butoxy)-phenyl]-3-(2-hydroxy-ethylsulfanylmethyl)-benzamide] it is 1.16 µM; for `O=c1c2c3c(sc2nc(-c2cccc(CSc4nc[nH]n4)c2)n1/N=C/c1ccc(F)cc1)CCCC3` [Compound 648, 3-[(4-Fluoro-benzylidene-)-amino]-2-[3-(1H-[1,2,4]triazol-3-ylsulfanylmethyl)-phenyl]-5,6,7,8-tetrahydro-3H-benzo[4,5]thieno[2,3-d]pyrimidin-4-one] it is 2.04 µM.
For the compound `COc1ccc(NC(=O)c2cccc(CSCC(O)CO)c2)c(C(=O)N/N=C/c2cccc(F)c2)c1` (centres unmarked) [Compound 1017, 3-(2,3-Dihydroxy-propylsulfanylmethyl)-N-[2-(3-fluoro-benzylidene-hydrazinocarbonyl)-4-methoxy-phenyl]-benzamide], the IC50 was 0.87 µM.
Take `CCN(CC)CCN(C)Cc1cccc(C(=O)Nc2ccc(I)cc2C(=O)N/N=C/c2cccc(C)c2)c1` [Compound 474, 3-{[(2-Diethylamino-ethyl)-methyl-amino]-methyl}-N-[4-iodo-2-(3-methyl-benzylidene-hydrazinocarbonyl)-phenyl]-benzamide]: the IC50 was < 3 µM.
Still for that read-out and setting: the figure for `Cc1ccc(/C=N/n2c(-c3cccc(CSc4nc[nH]n4)c3)nc3sc4c(c3c2=O)CCCC4)cc1` [Compound 647, 3-[(4-Methyl-benzylidene-)-amino]-2-[3-(1H-[1,2,4]triazol-3-ylsulfanylmethyl)-phenyl]-5,6,7,8-tetrahydro-3H-benzo[4,5]thieno[2,3-d]pyrimidin-4-one] is 5.62 µM; for `Cc1ccc(/C=N/NC(=O)c2c(C)csc2NC(=O)c2cccc(CN3CCC(N4CCCCC4)CC3)c2)cc1` [Compound 570, 3-[1,4′]Bipiperidinyl-1′-ylmethyl-N-[4-methyl-3-(4-methyl-benzylidene-hydrazinocarbonyl)-thiophen-2-yl]-benzamide] it is 6.04 µM; for `O=c1c2cc(Br)ccc2nc(-c2cccc(CSCCO)c2)n1/N=C/c1ccc(F)cc1` [Compound 695, 6-Bromo-3-[(4-fluoro-benzylidene-)-amino]-2-[3-(2-hydroxy-ethylsulfanylmethyl)-phenyl]-3H-quinazolin-4-one] it is 6.76 µM.
The same measure, in the same setting: next, `CCN(CC)CCN(C)Cc1cccc(C(=O)Nc2ccc(OCCCN3CCCCC3)cc2C(=O)N/N=C/c2ccc(Cl)c(C(F)(F)F)c2)c1` [Compound 1038, N-[2-(4-Chloro-3-trifluoromethyl-benzylidene-hydrazinocarbonyl)-4-(3-piperidin-1-yl-propoxy)-phenyl]-3-{[(2-diethylamino-ethyl)-methyl-amino]-methyl}-benzamide]: 3.35 µM; `O=C(Nc1sc2c(c1C(=O)N/N=C/c1cccc(F)c1)CCCC2)c1cccc(CN2CCC(N3CCCCC3)CC2)c1` [Compound 618, 3-[1,4′]Bipiperidinyl-1′-ylmethyl-N-[3-(3-fluoro-benzylidene-hydrazinocarbonyl)-4,5,6,7-tetrahydro-benzo[b]thiophen-2-yl]-benzamide]: 4.25 µM.
Still for that read-out and setting: the figure for `CCN(CC)CCN(CCN(CC)CC)Cc1cccc(C(=O)Nc2ccc(N3CCCCC3)cc2C(=O)N/N=C/c2ccc(C)cc2)c1` [Compound 906, 3-{[Bis-(2-diethylamino-ethyl)-amino]-methyl}-N-[2-(4-methyl-benzylidene-hydrazinocarbonyl)-4-piperidin-1-yl-phenyl]-benzamide] is 1.83 µM.
Turning to `Cc1ccc(/C=N/NC(=O)c2cc(Cl)ccc2NC(=O)c2cccc(CSCCS(=O)(=O)O)c2)cc1` [Compound 693, 2-{3-[4-Chloro-2-(4-methyl-benzylidene-hydrazinocarbonyl)-phenylcarbamoyl]-benzylsulfanyl}-ethanesulfonic acid], the IC50 amounted to 70.2 µM.

The assay is the same for the next values; noted with them: phosphate uptake, oocytes expressing rat NaPi-2b; 300 μM, determined from inhibition curve.
In turn, `Cc1ccc(/C=N/NC(=O)c2scc(C)c2NC(=O)c2cccc(CN3CCN(CCO)CC3)c2)cc1` [Compound 533, 3-[4-(2-Hydroxy-ethyl)-piperazin-1-ylmethyl]-N-[4-methyl-2-(4-methyl-benzylidene-hydrazinocarbonyl)-thiophen-3-yl]-benzamide] came in with an inhibition at 300 µM of 36.9%.
Turning to `COc1ccc(C(=O)Nc2ccccc2C(=O)N/N=C/c2cccc(C)n2)cc1OC` [Compound 247, 3,4-Dimethoxy-N-[2-(6-methyl-pyridin-2-ylmethylene-hydrazinocarbonyl)-phenyl]-benzamide], the inhibition at 300 µM was determined as 34.8%.
On the same count and under the same terms, the figure for `Cc1csc(C(=O)N/N=C/c2cccc(F)c2)c1NC(=O)c1cccc(CSc2nc[nH]n2)c1` [Compound 524, N-[2-(3-Fluoro-benzylidene-hydrazinocarbonyl)-4-methyl-thiophen-3-yl]-3-(1H-[1,2,4]triazol-3-ylsulfanylmethyl)-benzamide] is 42.8%; for `Cc1ccc(/C=N/NC(=O)c2cc(OCC(O)CN3CCOCC3)ccc2NC(=O)c2cccc(CN(CC(C)O)CC(C)O)c2)cc1C` (centres unmarked) [Compound 953, 3-{[Bis-(2-hydroxy-propyl)-amino]-methyl}-N-[2-(3,4-dimethyl-benzylidene-hydrazinocarbonyl)-4-(2-hydroxy-3-morpholin-4-yl-propoxy)-phenyl]-benzamide] it is 67.8%.

For the origin of these results see patent US8134015B2, “Compound inhibiting in vivo phosphorous transport and medicine containing the same” (Kyowa Hakko Kirin Co., Ltd., priority 2003, dated 2012).
